Drawing on patent US9920010B2, “CXCR7 receptor modulators” (IDORSIA PHARMACEUTICALS LTD, priority 2013, dated 2018), this text covers EC50 for 29 molecules.

The target in this assay is T1, CXCR7 (Homo sapiens, UniProt P25106).
T1 construct: host or cells: CHO-K1 (PathHunter CHO-K1 CXCR7 b-arrestin cell line, stably transfected)
Nature of the assay: PathHunter CHO-K1 CXCR7 b-arrestin recruitment assay (CXCR7 agonistic activity). Type of assay: cell-based. The settings on record: PathHunter CHO-K1 CXCR7 b-arrestin cell line. The procedure:
The CXCl12 receptor and CXCR7 agonistic activities of the compounds of formula (I) are determined in accordance with the following experimental method.
The assay is using the PathHunter™ CHO-K1 CXCR7 b-arrestin cell line from DiscoverX. The system is based on the Enzyme Fragment Complementation Technology. Two complementing fragments of the b-galactosidase enzyme are expressed within stably transfected cells. The larger portion of b-gal, termed EA for Enzyme Acceptor, is fused to the C-terminus of b-arrestin 2. The smaller fragment, termed ProLink™ tag, is fused to CXCR7 at the C-terminus. Upon activation, b-arrestin is recruited which forces the interaction of ProLink and EA, allowing complementation of the two fragments of b-gal and the formation of a functional enzyme which is capable of hydrolysing the substrate and generating a chemiluminescent signal.
CHO-K1 CXCR7 b-arrestin cells are detached from culture dishes with a cell dissociation buffer (Invitrogen, #13151-014) and collected in growing medium (F12 HAMS 90% (v/v)/FCS 10% (v/v), Penicillin/streptomycin 1% (v/v)). 5000 cells per well (in 20 μl) are seeded in a 384 well plate (white-walled, clear bottom; BD Falcon #353274). The plate is incubated at 37° C./5% CO2 for 24 hours. Medium is then replaced by 20 μl OPTIMEM (Invitrogen #31985) for 3 to 4 hours. Test compounds are dissolved at 10 mM in DMSO and serially diluted in DMSO to 200× of the final concentration for dose response curves. Compounds are then diluted 1:33.3 in HBSS1×. 5 μl/well of HBSS1×/20 mM HEPES/0.2% BSA are added to the assay plate followed by addition of 5 μl/well of diluted compounds. CXCL12 (Peprotech #300-28A) may be used as a reference agonist. The plate is incubated for 90 minutes at 37° C. 12 μl of detection reagent (Path Hunter Detection Kit, DiscoveRx, #93-0001) is transferred to the assay plate and to the plate is incubated for 1 hour at room temperature. Luminescent signal is read in a microplate reader (FLUOstar Optima, bmg). The calculated EC50 values may fluctuate depending on the daily cellular assay performance. Fluctuations of this kind are known to those skilled in the art. Average EC50 values from several measurements are given as geometric mean values.

T1 sequence (P25106 whole entry): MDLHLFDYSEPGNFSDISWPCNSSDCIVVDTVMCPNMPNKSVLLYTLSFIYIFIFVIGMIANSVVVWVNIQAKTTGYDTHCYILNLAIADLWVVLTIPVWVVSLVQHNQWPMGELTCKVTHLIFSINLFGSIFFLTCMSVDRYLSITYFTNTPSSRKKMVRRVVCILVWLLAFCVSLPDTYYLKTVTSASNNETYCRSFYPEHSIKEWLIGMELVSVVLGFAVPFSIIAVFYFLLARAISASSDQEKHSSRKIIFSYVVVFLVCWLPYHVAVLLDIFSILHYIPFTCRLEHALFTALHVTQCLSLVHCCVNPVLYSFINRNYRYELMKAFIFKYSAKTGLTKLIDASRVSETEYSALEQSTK
T1 sequence (P32121 whole entry partner): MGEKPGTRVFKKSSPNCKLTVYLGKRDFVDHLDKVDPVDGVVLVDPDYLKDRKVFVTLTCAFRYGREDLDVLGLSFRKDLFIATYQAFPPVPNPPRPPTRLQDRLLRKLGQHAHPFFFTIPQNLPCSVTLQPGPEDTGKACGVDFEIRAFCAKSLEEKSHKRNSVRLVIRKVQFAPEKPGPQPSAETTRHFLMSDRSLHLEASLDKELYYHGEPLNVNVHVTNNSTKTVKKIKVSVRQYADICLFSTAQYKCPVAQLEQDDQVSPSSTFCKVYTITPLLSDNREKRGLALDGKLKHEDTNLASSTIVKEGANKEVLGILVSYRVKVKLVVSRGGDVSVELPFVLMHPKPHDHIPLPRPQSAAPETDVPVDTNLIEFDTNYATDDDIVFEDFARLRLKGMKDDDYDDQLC

Broadly, the EC50 is the concentration that produces a half-maximal response. The low end stands for a more potent agent, the high end for a less potent agent. In turn, `CN(C)CCN(Cc1ccnn1C)C(=O)CNc1cccc2c1CCN(CC1CC1)C2` [Example 264, 2-(2-Cyclopropylmethyl-1,2,3,4-tetrahydro-isoquinolin-5-ylamino)-N-(2-dimethylamino-ethyl)-N-(2-methyl-2H-pyrazol-3-ylmethyl)-acetamide] returned an EC50 of 0.374 µM.

`O=C(CNc1cccc2c1CCN(CC1CC1)C2)N(Cc1ccccc1C(F)(F)F)C1CCNC1` (racemic) [compound 381] had an EC50 of 0.009 µM. Molecule `CCOC(=O)CN1CCc2c(cccc2NCC(=O)N(CCN(C)C)Cc2ncccc2C(F)(F)F)C1` [Example 369, [5-({[(2-Dimethylamino-ethyl)-(3-trifluoromethyl-pyridin-2-ylmethyl)-carbamoyl]-methyl}-amino)-3,4-dihydro-1H-isoquinolin-2-yl]-acetic acid ethyl ester] registered an EC50 of 0.092 µM. The molecule `CCCC(=O)N1CCc2c(cccc2NCC(=O)N(CCNC)Cc2ncccc2C(F)(F)F)C1` [compound 411, 2-(2-Butyryl-1,2,3,4-tetrahydro-isoquinolin-5-ylamino)-N-(2-methylamino-ethyl)-N-(3-trifluoromethyl-pyridin-2-ylmethyl)-acetamide] returned an EC50 of 0.015 µM. This EC50 lies about 6.1-fold lower than the previous one. `CC(C)(O)CN(Cc1ncccc1Br)C(=O)CNc1cccc2c1C(C)(C)CN(CC1CC1)C2` [Example 576, N-(3-Bromo-pyridin-2-ylmethyl)-2-(2-cyclopropylmethyl-4,4-dimethyl-1,2,3,4-tetrahydro-isoquinolin-5-ylamino)-N-(2-hydroxy-2-methyl-propyl)-acetamide] yielded an EC50 of 0.006 µM. The molecule `CCC(=O)N1CCc2c(cccc2NCC(=O)N(Cc2ccccc2)Cc2ccccn2)C1` [Example 25, N-Benzyl-2-(2-propionyl-1,2,3,4-tetrahydro-isoquinolin-5-ylamino)-N-pyridin-2-ylmethyl-acetamide] showed an EC50 of 0.309 µM.

In turn, `CC(C)(C)CCN(Cc1ccccc1C(F)(F)F)C(=O)CNc1cccc2c1CCN(CC1CC1)C2` [Example 274, 2-(2-Cyclopropylmethyl-1,2,3,4-tetrahydro-isoquinolin-5-ylamino)-N-(3,3-dimethyl-butyl)-N-(2-trifluoromethyl-benzyl)-acetamide] came in with a 50% effective concentration (EC50) of 0.179 µM. This EC50 lies about 1.7-fold lower than the previous one. Next, `CN(CCN(Cc1ccccc1Br)C(=O)CNc1cccc2c1CCN(CC1CC1)C2)C(=O)OC(C)(C)C` [Example 235, (2-{(2-Bromo-benzyl)-[2-(2-cyclopropylmethyl-1,2,3,4-tetrahydro-isoquinolin-5-ylamino)-acetyl]-amino}-ethyl)-methyl-carbamic acid tert-butyl ester]: 0.107 µM; `CN(C)CCN(Cc1ccc(OC(F)(F)F)cc1)C(=O)CNc1cccc2c1CN(CC1CC1)CC2` [compound 473]: 0.102 µM; `Cc1csc(CN(Cc2ccccc2C(F)(F)F)C(=O)CNc2cccc3c2CCN(CC2CC2)C3)n1` [Example 77, 2-(2-Cyclopropylmethyl-1,2,3,4-tetrahydro-isoquinolin-5-ylamino)-N-(4-methyl-thiazol-2-ylmethyl)-N-(2-trifluoromethyl-benzyl)-acetamide]: 0.046 µM. `CN(CCN(Cc1ncccc1C(F)(F)F)C(=O)CNc1cccc2c1CN(CC1CC1)CC2)CC(F)(F)F` [compound 477] showed an EC50 of 0.063 µM.

`CN(C)CCN(Cc1ccccc1OC(F)(F)F)C(=O)CNc1cccc2c1CN(CC1CC1)CC2` [compound 472, 2-(2-Cyclopropylmethyl-1,2,3,4-tetrahydro-isoquinolin-8-ylamino)-N-(2-dimethylamino-ethyl)-N-(2-trifluoromethoxy-benzyl)-acetamide] displayed an EC50 of 0.021 µM. This EC50 is about 3-fold lower than that of the molecule before.

`COCCN1CCc2c(CCC(=O)N(Cc3ccccc3C(F)(F)F)CC3(C)COC3)cccc2C1` [Example 343, 3-[2-(2-Methoxy-ethyl)-1,2,3,4-tetrahydro-isoquinolin-5-yl]-N-(3-methyl-oxetan-3-ylmethyl)-N-(2-trifluoromethyl-benzyl)-propionamide] returned an EC50 of 0.415 µM. On to `CNCCN(Cc1ccccc1C(F)(F)F)C(=O)CNc1cccc2c1CCN(C(=O)OCC(C)C)C2` [compound 401], for which a half-maximal effect (EC50) was put at 0.25 µM. The molecule `CNCCN(Cc1ccccc1C(F)(F)F)C(=O)CNc1cccc2c1CCN(CC1CC1)C2C` (racemic) [compound 382] yielded an EC50 of 0.008 µM.

`Cc1csc(CN(CCN(C)C)C(=O)CNc2cccc3c2CCN(CC2CC2)C3)n1` [Example 266, 2-(2-Cyclopropylmethyl-1,2,3,4-tetrahydro-isoquinolin-5-ylamino)-N-(2-dimethylamino-ethyl)-N-(4-methyl-thiazol-2-ylmethyl)-acetamide] yielded an EC50 of 0.016 µM.

Consider `CN1CCC(N(Cc2ccccc2C(F)(F)F)C(=O)/C=C/c2cccc3c2CCN(CC2CC2)C3)CC1` [compound 152, (E)-3-(2-Cyclopropylmethyl-1,2,3,4-tetrahydro-isoquinolin-5-yl)-N-(1-methyl-piperidin-4-yl)-N-(2-trifluoromethyl-benzyl)-acrylamide], for which the EC50 was found to be 0.008 µM. As for `CCCOC(=O)N1CCc2c(cccc2NCC(=O)N(CCNC)Cc2ccccc2C(F)(F)F)C1` [compound 398], the EC50 stood at 0.082 µM.

As for `COCCN1CCc2c(CCC(=O)N(Cc3ncccc3Cl)CC(C)(C)O)cccc2C1` [Example 347, N-(3-Chloro-pyridin-2-ylmethyl)-N-(2-hydroxy-2-methyl-propyl)-3-[2-(2-methoxy-ethyl)-1,2,3,4-tetrahydro-isoquinolin-5-yl]-propionamide], the EC50 is 0.445 µM. Regarding `CN1CCCC1CCN(Cc1ccccc1C(F)(F)F)C(=O)CNc1cccc2c1CCN(CC1CC1)C2` (centres unmarked) [Example 213, 2-(2-Cyclopropylmethyl-1,2,3,4-tetrahydro-isoquinolin-5-ylamino)-N-[2-(1-methyl-pyrrolidin-2-yl)-ethyl]-N-(2-trifluoromethyl-benzyl)-acetamide], the response was half-maximal at 0.002 µM (EC50). For the molecule `CCOC(=O)CN(Cc1ccccc1)C(=O)/C=C/c1cccc2c1CCN(CC1CC1)C2` [compound 144, {Benzyl-[(E)-3-(2-cyclopropylmethyl-1,2,3,4-tetrahydro-isoquinolin-5-yl)-acryloyl]-amino}-acetic acid ethyl ester], the EC50 is 0.022 µM. Against the preceding molecule, the EC50 is about 11-fold higher. Turning to `CN(C)CCN(Cc1ccccc1)C(=O)CNc1cccc2c1CN(CC1CCCCC1)CC2` [compound 194, N-Benzyl-2-(2-cyclohexylmethyl-1,2,3,4-tetrahydro-isoquinolin-8-ylamino)-N-(2-dimethylamino-ethyl)-acetamide], it took 0.013 µM to reach a half-maximal effect (EC50). `CCCN1CCc2cccc(NCC(=O)N(CCN(C)C)Cc3ccccc3C(F)(F)F)c2C1` [compound 556, N-(2-Dimethylamino-ethyl)-2-(2-propyl-1,2,3,4-tetrahydro-isoquinolin-8-ylamino)-N-(2-trifluoromethyl-benzyl)-acetamide]: it took 0.008 µM to reach a half-maximal effect (EC50). Take `CCCCNC(=O)N1CCc2c(cccc2NCC(=O)N(CCNC)Cc2ncccc2C(F)(F)F)C1` [compound 431]: the EC50 worked out at 0.12 µM.

`CN(CCN(Cc1ccccc1C(F)(F)F)C(=O)CNc1cccc2c1CCN(CC1CC1)C2)CC(F)(F)F` [Example 278, 2-(2-Cyclopropylmethyl-1,2,3,4-tetrahydro-isoquinolin-5-ylamino)-N-{2-[methyl-(2,2,2-trifluoro-ethyl)-amino]-ethyl}-N-(2-trifluoromethyl-benzyl)-acetamide] returned an EC50 of 0.079 µM. `CCN1CCc2c(cccc2NCC(=O)N(CCN(C)C)Cc2ccccc2Cl)C1` [compound 133, N-(2-Chloro-benzyl)-N-(2-dimethylamino-ethyl)-2-(2-ethyl-1,2,3,4-tetrahydro-isoquinolin-5-ylamino)-acetamide] showed an EC50 of 0.02 µM. Regarding `CN(CCN(Cc1ncccc1C(F)(F)F)C(=O)CNc1cccc2c1CCN(CC1CC1)C2)CC(F)(F)F` [Example 280, 2-(2-Cyclopropylmethyl-1,2,3,4-tetrahydro-isoquinolin-5-ylamino)-N-{2-[methyl-(2,2,2-trifluoro-ethyl)-amino]-ethyl}-N-(3-trifluoromethyl-pyridin-2-ylmethyl)-acetamide], the EC50 came to 0.028 µM. As for `CCC(=O)N1CCc2c(cccc2NCC(=O)N(CCc2ccccc2)CCN(C)C)C1` [Example 17, N-(2-Dimethylamino-ethyl)-N-phenethyl-2-(2-propionyl-1,2,3,4-tetrahydro-isoquinolin-5-ylamino)-acetamide], the response was half-maximal at 0.135 µM (EC50). The molecule `CC(C)(C)OC(=O)N1CCc2c(/C=C/C(=O)N(Cc3ccccc3)C3CCS(=O)(=O)C3)cccc2C1` (centres unmarked) [Example 95, 5-{(E)-2-[Benzyl-(1,1-dioxo-tetrahydro-1l6-thiophen-3-yl)-carbamoyl]-vinyl}-3,4-dihydro-1H-isoquinoline-2-carboxylic acid tert-butyl ester] registered an EC50 of 0.432 µM.
